From patent US7259170B2, “Macrolides containing pharmaceutical compositions” (Novartis AG, priority 2001, dated 2007)
Counter-ions that a name gives are not always drawn. Marks after values point to notes of the source that are not given here.

System: Experimental autoimmune uveitits (EAU)
Test: Experimental autoimmune uveitits (EAU) test in rats
Format: in vivo, LEWIS rats
Settings: for EAU 1st: Day of first signs of EAU (mean±SD) / EAU 10: Incidence of EAU on day 10 (affected animals/animals per group) / EAU POS: Number of EAU positive rats (affected animals/animals per group until end of the study) / SCORE MAX DAY: day of maximum score / SCORE MAX SCORE: Maximum score (mean of both eye lesions±SD): oral once daily; for course and intensity of the disease compared with placebo controls: oral, 0.1 mg/kg compound of formula IIa or 15 mg/kg/day compound of formula I alone, combination at the same dosage levels
[1] = Example 1, 5 rats per group, 14 days, Dosis mg/kg/day: Cpd IIa 0.1, Cpd I 15, combination 1.5 [sic] + 15
[2] = Example 1, 14 days, Dosis mg/kg/day: Cpd IIa 0.1, Cpd I 15, combination 1.5 [sic] + 15
[3] = Example 1, scores 0 to 4 for 1 eye, 14 days, Dosis mg/kg/day: Cpd IIa 0.1, Cpd I 15, combination 1.5 [sic] + 15
[4] = Example 2, 6 rats per group, 14 days (14×), mg/kg/day: Cpd IIa 0.1, Cpd I 15, combination 15 + 0.1

Compound | EAU 1st: Day of first signs of EAU (mean±SD) [1] | EAU 10: Incidence of EAU on day 10 (affected animals/animals per group) [1] | EAU POS: Number of EAU positive rats (affected animals/animals per group until end of the study) [1] | SCORE MAX DAY: day of maximum score [2] [days] | course and intensity of the disease compared with placebo controls (Example 1) | SCORE MAX SCORE: Maximum score (mean of both eye lesions±SD) [3] | EAU 1st: Day of first signs of EAU (mean±SD) [4] | EAU 10: Incidence of EAU on day 10 (affected animals/animals per group) [4] | EAU POS: Number of EAU positive rats (affected animals/animals per group until end of the study) [4] | SCORE MAX DAY: day of maximum score [4] [days] | SCORE MAX SCORE: Maximum score (mean of both eye lesions±SD) [4]
CC[C@@H]1/C=C(\C)C[C@H](C)C[C@H](OC)[C@H]2O[C@@](O)(C(=O)C(=O)N3CCCC[C@H]3C(=O)O[C@H](/C(C)=C/[C@@H]3CC[C@H](Cl)[C@H](OC)C3)[C@H](C)[C@@H](O)CC1=O)[C@H](C)C[C@@H]2OC [Cpd I, 33-epi-33-chloro-FR 520] | 11.8 (1.3) day | 1/5 | 5/5 | 14 | not distinctively different from placebo controls | 6.8 (1.3) | 11.5 (0.8) day | 2/6 | 6/6 | 14 | 6.0 (2.5)
CCCCCCCCc1ccc(CCC(N)(CO)CO)cc1 [Cpd IIa, 2-amino-2[2-(4-octylphenyl)ethyl]propane-1,3-diol hydrochloride] | 10.5 (0.6) day | 2/5 | 4/4*^) | 13 | not distinctively different from placebo controls | 8.0 (0.0) | 11.2 (1.0) day | 0/6 | 6/6 | 14 | 8.0 (0.0)
